{"source": "patent US20260200947A1", "about": "“FUSED CYCLIC COMPOUNDS AND USE THEREOF” (Jacobio Pharmaceuticals Co., Ltd., priority 2022, published 2026)"}
{"test_system": "SW620 cells (K-Ras G12V)", "assay": "Phospho-ERK1/2(THR202/TYR204) HTRF assay, SW620", "format": "cell-based", "conditions": "2 hours incubation, read-out: pERK, IC50, SW620", "units": {"IC50": "nM"}, "procedure": "Each of cells in culture medium was seeded in 96-well plates at density indicated in Table 4 and put in a cell incubator to incubate overnight. The next day, the culture medium was removed and the compound diluted in assay medium was added in each well. […] 10 μL of cell lysates from the 96-well plates were transferred to a 384-well plate (Greiner) containing 2.5 μL/well HTRF® pre-mixed antibodies (Cisbio 64AERPEH). The plate was incubated 4 hours at 25° C. and read HTRF signals on Tecan Spark multimode microplate reader. The data were analyzed using a 4-parameter logistic model to calculate IC50 values."}
{"compound": "C#Cc1c(F)ccc2cc(N)cc(-c3nc4c5c(nc(OC[C@@]67CCCN6C[C@H](F)C7)nc5c3F)N3[C@@H](COCC[C@@H]3C)CO4)c12", "note": "[Compound 38A]", "IC50": 0.648}
{"compound": "C#Cc1c(F)ccc2cc(N)cc(-c3nc4c5c(nc(OCC67CCCN6CC(F)C7)nc5c3F)N3C(C)CCOCC3CO4)c12", "note": "(stereo not drawn) [Compound 38B]", "IC50": 2.59}
{"compound": "C#Cc1c(F)ccc2cc(N)cc(-c3nc4c5c(nc(OC[C@@]67CCCN6C[C@H](F)C7)nc5c3F)N3CC(C)COCC3N4C)c12", "note": "(single isomer, unassigned) [Compound 103]", "IC50": 10.1}
{"compound": "C#Cc1c(F)ccc2cc(N)cc(-c3nc4c5c(nc(OCC67CCCN6CC(F)C7)nc5c3F)N3CCCCCC3CO4)c12", "note": "(stereo not drawn) [Compound 27B]", "IC50": 12.4}
{"test_system": "not listed separately", "assay": "Mouse pharmacokinetic study", "format": "in vivo", "conditions": "Balb/c mouse (female), 3 mg/kg, iv, plasma", "method": "(§1) The purpose of this study was to evaluate the pharmacokinetic properties of compounds in Balb/c mouse (female) following single dose administration. Six mice were needed for each compound and the six mice were divided into two groups (n=3/group), group A and group B. Mice in group A were treated with a single 3 mg/kg dose of compound (iv). Mice in group B were treated with a single 10 mg/kg dose of compound (po). Foreach mouse in group A, blood samples were collected at the time point of 0.083 h 0.5 h, 1 h, 2 h, 4 h, 8 h and 24 h post-dose. For each mouse in group B, blood samples were collected at the time point of 0.25 h, 0.5 h, 1 h, 2 h, 4 h, 8 h and 24 h post-dose. Blood samples were placed on ice until centrifugation to obtain plasma samples. The plasma samples were stored at −80° C. until analysis. The concentration of compound in plasma samples was determined using a LC-MS/MS method.", "units": {"AUC0-24 h": "ng·h/mL", "Cl_obs": "mL/min/kg"}}
{"compound": "C#Cc1c(F)ccc2cc(N)cc(-c3nc4c5c(nc(OC[C@@]67CCCN6C[C@H](F)C7)nc5c3F)N3[C@@H](COCC[C@@H]3C)CO4)c12", "note": "[Compound 38A]", "AUC0-24 h": 4004, "Cl_obs": 12.7}
{"test_system": "not listed separately", "assay": "Mouse pharmacokinetic study", "format": "in vivo", "conditions": "Balb/c mouse (female), 10 mg/kg po vs 3 mg/kg iv", "method": "as §1", "units": {"F": "%"}}
{"compound": "C#Cc1c(F)ccc2cc(N)cc(-c3nc4c5c(nc(OC[C@@]67CCCN6C[C@H](F)C7)nc5c3F)N3[C@@H](COCC[C@@H]3C)CO4)c12", "note": "[Compound 38A]", "F": 39.1}
{"test_system": "not listed separately", "assay": "Mouse pharmacokinetic study", "format": "in vivo", "conditions": "Balb/c mouse (female), 10 mg/kg, po, plasma", "method": "as §1", "units": {"AUC0-24 h": "ng·h/mL", "Cmax": "ng/mL"}}
{"compound": "C#Cc1c(F)ccc2cc(N)cc(-c3nc4c5c(nc(OC[C@@]67CCCN6C[C@H](F)C7)nc5c3F)N3[C@@H](COCC[C@@H]3C)CO4)c12", "note": "[Compound 38A]", "AUC0-24 h": 5213, "Cmax": 971}
{"test_system": "AsPC-1 cells (K-Ras G12D)", "assay": "not given", "conditions": "not given", "units": {"IC50": "nM"}}
{"compound": "C#Cc1c(F)ccc2cc(N)cc(-c3nc4c5c(nc(OC[C@@]67CCCN6C[C@H](F)C7)nc5c3F)N3[C@@H](COCC[C@@H]3C)CO4)c12", "note": "[Compound 38A]", "IC50": 28.7}
{"compound": "C#Cc1c(F)ccc2cc(N)cc(-c3nc4c5c(nc(OCC67CCCN6CC(F)C7)nc5c3F)N3C(C)CCOCC3CO4)c12", "note": "(stereo not drawn) [Compound 38B]", "IC50": 61.3}
{"compound": "C#Cc1c(F)ccc2cc(N)cc(-c3nc4c5c(nc(OC[C@@]67CCCN6C[C@H](F)C7)nc5c3F)N3CC(C)COCC3N4C)c12", "note": "(single isomer, unassigned) [Compound 103]", "IC50": 180}
{"compound": "C#Cc1c(F)ccc2cc(N)cc(-c3nc4c5c(nc(OCC67CCCN6CC(F)C7)nc5c3F)N3CCCCCC3CO4)c12", "note": "(stereo not drawn) [Compound 27B]", "IC50": 110}
{"test_system": "SW620 cells (K-Ras G12V)", "assay": "not given", "conditions": "not given", "units": {"IC50": "nM"}}
{"compound": "C#Cc1c(F)ccc2cc(N)cc(-c3nc4c5c(nc(OC[C@@]67CCCN6C[C@H](F)C7)nc5c3F)N3[C@@H](COCC[C@@H]3C)CO4)c12", "note": "[Compound 38A]", "IC50": 2.64}
{"compound": "C#Cc1c(F)ccc2cc(N)cc(-c3nc4c5c(nc(OCC67CCCN6CC(F)C7)nc5c3F)N3C(C)CCOCC3CO4)c12", "note": "(stereo not drawn) [Compound 38B]", "IC50": 5.47}
{"compound": "C#Cc1c(F)ccc2cc(N)cc(-c3nc4c5c(nc(OC[C@@]67CCCN6C[C@H](F)C7)nc5c3F)N3CC(C)COCC3N4C)c12", "note": "(single isomer, unassigned) [Compound 103]", "IC50": 14.5}
{"compound": "C#Cc1c(F)ccc2cc(N)cc(-c3nc4c5c(nc(OCC67CCCN6CC(F)C7)nc5c3F)N3CCCCCC3CO4)c12", "note": "(stereo not drawn) [Compound 27B]", "IC50": 16.9}
{"target": "GppNp-KRAS G12D (Homo sapiens, UniProt P01116, G12D)", "sequence (P01116 1-169 isoform P01116-2 G12D)": "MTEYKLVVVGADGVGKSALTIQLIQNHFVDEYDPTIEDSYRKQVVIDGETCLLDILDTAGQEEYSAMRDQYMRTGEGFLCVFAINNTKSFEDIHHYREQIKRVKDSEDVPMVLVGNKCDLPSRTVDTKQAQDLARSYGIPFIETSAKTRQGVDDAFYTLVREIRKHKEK", "assay": "GTP-K-Ras and cRAF interaction assay, GppNp-KRAS G12D", "conditions": "read-out: Biochemical assays, IC50, KRAS G12D GppNp; GppNp-loaded K-Ras G12D, cRAF RBD interaction, HTRF", "units": {"IC50": "nM"}}
{"compound": "C#Cc1c(F)ccc2cc(N)cc(-c3nc4c5c(nc(OC[C@@]67CCCN6C[C@H](F)C7)nc5c3F)N3[C@@H](COCC[C@@H]3C)CO4)c12", "note": "[Compound 38A]", "IC50": 51.9}
{"compound": "C#Cc1c(F)ccc2cc(N)cc(-c3nc4c5c(nc(OCC67CCCN6CC(F)C7)nc5c3F)N3C(C)CCOCC3CO4)c12", "note": "(stereo not drawn) [Compound 38B]", "IC50": 174}
{"compound": "C#Cc1c(F)ccc2cc(N)cc(-c3nc4c5c(nc(OC[C@@]67CCCN6C[C@H](F)C7)nc5c3F)N3CC(C)COCC3N4C)c12", "note": "(single isomer, unassigned) [Compound 103]", "IC50": 214}
{"compound": "C#Cc1c(F)ccc2cc(N)cc(-c3nc4c5c(nc(OCC67CCCN6CC(F)C7)nc5c3F)N3CCCCCC3CO4)c12", "note": "(stereo not drawn) [Compound 27B]", "IC50": 174}
{"target": "GppNp-KRAS G12V (Homo sapiens, UniProt P01116, G12V)", "sequence (P01116 1-169 isoform P01116-2 G12V)": "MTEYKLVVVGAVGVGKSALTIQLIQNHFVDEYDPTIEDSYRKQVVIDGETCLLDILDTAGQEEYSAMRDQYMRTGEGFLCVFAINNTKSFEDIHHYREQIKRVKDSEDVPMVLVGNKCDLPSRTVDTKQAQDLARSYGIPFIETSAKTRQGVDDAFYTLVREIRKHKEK", "assay": "GTP-K-Ras and cRAF interaction assay, GppNp-KRAS G12V", "conditions": "read-out: Biochemical assays, IC50, KRAS G12V GppNp; GppNp-loaded K-Ras G12V, cRAF RBD interaction, HTRF", "units": {"IC50": "nM"}}
{"compound": "C#Cc1c(F)ccc2cc(N)cc(-c3nc4c5c(nc(OC[C@@]67CCCN6C[C@H](F)C7)nc5c3F)N3[C@@H](COCC[C@@H]3C)CO4)c12", "note": "[Compound 38A]", "IC50": 75.6}
{"compound": "C#Cc1c(F)ccc2cc(N)cc(-c3nc4c5c(nc(OCC67CCCN6CC(F)C7)nc5c3F)N3C(C)CCOCC3CO4)c12", "note": "(stereo not drawn) [Compound 38B]", "IC50": 685}
{"compound": "C#Cc1c(F)ccc2cc(N)cc(-c3nc4c5c(nc(OC[C@@]67CCCN6C[C@H](F)C7)nc5c3F)N3CC(C)COCC3N4C)c12", "note": "(single isomer, unassigned) [Compound 103]", "IC50": 101}
{"compound": "C#Cc1c(F)ccc2cc(N)cc(-c3nc4c5c(nc(OCC67CCCN6CC(F)C7)nc5c3F)N3CCCCCC3CO4)c12", "note": "(stereo not drawn) [Compound 27B]", "IC50": 563}
{"target": "GDP-KRAS G12D (Homo sapiens, UniProt P01116, G12D)", "sequence (P01116 1-169 isoform P01116-2 G12D)": "as the sequence (P01116 1-169 isoform P01116-2 G12D) above", "assay": "SOS1 catalyzed nucleotide exchange assay, GDP-KRAS G12D", "conditions": "read-out: Biochemical assays, IC50, KRAS G12D GDP, GDP form K-Ras G12D, TR-FRET", "units": {"IC50": "nM"}}
{"compound": "C#Cc1c(F)ccc2cc(N)cc(-c3nc4c5c(nc(OC[C@@]67CCCN6C[C@H](F)C7)nc5c3F)N3[C@@H](COCC[C@@H]3C)CO4)c12", "note": "[Compound 38A]", "IC50": 0.46}
{"compound": "C#Cc1c(F)ccc2cc(N)cc(-c3nc4c5c(nc(OCC67CCCN6CC(F)C7)nc5c3F)N3C(C)CCOCC3CO4)c12", "note": "(stereo not drawn) [Compound 38B]", "IC50": 1.05}
{"compound": "C#Cc1c(F)ccc2cc(N)cc(-c3nc4c5c(nc(OC[C@@]67CCCN6C[C@H](F)C7)nc5c3F)N3CC(C)COCC3N4C)c12", "note": "(single isomer, unassigned) [Compound 103]", "IC50": 3.45}
{"compound": "C#Cc1c(F)ccc2cc(N)cc(-c3nc4c5c(nc(OCC67CCCN6CC(F)C7)nc5c3F)N3CCCCCC3CO4)c12", "note": "(stereo not drawn) [Compound 27B]", "IC50": 2.51}
{"target": "GDP-KRAS G12V (Homo sapiens, UniProt P01116, G12V)", "sequence (P01116 1-169 isoform P01116-2 G12V)": "as the sequence (P01116 1-169 isoform P01116-2 G12V) above", "assay": "SOS1 catalyzed nucleotide exchange assay, GDP-KRAS G12V", "conditions": "read-out: Biochemical assays, IC50, KRAS G12V GDP, GDP form K-Ras G12V, TR-FRET", "units": {"IC50": "nM"}}
{"compound": "C#Cc1c(F)ccc2cc(N)cc(-c3nc4c5c(nc(OC[C@@]67CCCN6C[C@H](F)C7)nc5c3F)N3[C@@H](COCC[C@@H]3C)CO4)c12", "note": "[Compound 38A]", "IC50": 0.292}
{"compound": "C#Cc1c(F)ccc2cc(N)cc(-c3nc4c5c(nc(OCC67CCCN6CC(F)C7)nc5c3F)N3C(C)CCOCC3CO4)c12", "note": "(stereo not drawn) [Compound 38B]", "IC50": 0.397}
{"compound": "C#Cc1c(F)ccc2cc(N)cc(-c3nc4c5c(nc(OC[C@@]67CCCN6C[C@H](F)C7)nc5c3F)N3CC(C)COCC3N4C)c12", "note": "(single isomer, unassigned) [Compound 103]", "IC50": 1.79}
{"compound": "C#Cc1c(F)ccc2cc(N)cc(-c3nc4c5c(nc(OCC67CCCN6CC(F)C7)nc5c3F)N3CCCCCC3CO4)c12", "note": "(stereo not drawn) [Compound 27B]", "IC50": 2.69}
